Test results reported in ChEMBL document CHEMBL6182918, “Developing Dual-State Emission Berberine Derivatives as Theranostic Agents by Reducing Nonradiative Transition Pathways” (J Med Chem, 2025).
Activity calls are given as the source filed them. The calls are words filed in the database; no cut-off is given here.

Experiments:
[1] = Induction of ROS generation in aqueous solution assessed as hydroxyl radical generation (.OH) at 10 ug/ml pretreated with compound followed by light irradiation for 28 mins by fluorescence based analysis; type: functional; details: dose 10.0 µg/ml
[2] = Induction of ROS generation in aqueous solution assessed as singlet oxygen generation (1O2) at 10 ug/ml pretreated with compound followed by light irradiation for 28 mins by fluorescence based analysis; type: functional; details: dose 10.0 µg/ml
Staphylococcus aureus [3] = assay: Photodynamic antibacterial activity against Staphylococcus aureus ATCC 25923 assessed as log reduction in colony forming units at 50 ug/ml preincubated for 5 mins in PBS followed by light irradiation for 20 mins and later cultured on LB agar plate for 18 hrs by plate-count method; type: functional; details: dose 50 µg/ml; time 1105 min; 18.42 h
Staphylococcus aureus [4] = assay: Antibacterial activity against Staphylococcus aureus ATCC 29213 assessed as inhibition of bacterial growth by CLSI based broth microdilution method; type: functional, organism-based
Staphylococcus aureus [5] = assay: Antibacterial activity against Staphylococcus aureus ATCC 25923 assessed as reduction in colony forming units at 50 ug/ml preincubated for 5 to 20 mins in PBS followed by culturing on LB agar plate for 18 hrs by plate-count method; type: functional, organism-based; details: dose 50.0 µg/ml, time 1085-1100 min
[6] = Stability of the compound in the solution assessed as fluorescence intensity measured after 28 mins of light exposure by fluorescence based analysis; type: physicochemical; details: read-out: Stability
Staphylococcus aureus [7] = assay: Photodynamic antibacterial activity against Staphylococcus aureus ATCC 25923 assessed as reduction in colony forming units at 50 ug/ml preincubated for 5 mins in PBS followed by light irradiation for 5 to 20 mins and later cultured on LB agar plate for 18 hrs by plate-count method; type: functional, organism-based; details: dose 50.0 µg/ml, time 1090-1105 min
Staphylococcus aureus [8] = assay: Antibacterial activity against Staphylococcus aureus assessed as inhibition of bacterial growth by CLSI based broth microdilution method; type: functional
Escherichia coli [9] = assay: Antibacterial activity against Escherichia coli assessed as inhibition of bacterial growth by CLSI based broth microdilution method; type: functional, organism-based
[10] = Aqueous solubility of the compound relative to berberine; type: physicochemical; details: buffer
Escherichia coli [11] = assay: Photodynamic antibacterial activity against Escherichia coli EHEC assessed as reduction in colony forming units at 50 ug/ml preincubated for 5 mins in PBS followed by light irradiation for 20 mins and later cultured on LB agar plate for 18 hrs by plate-count method; type: functional, organism-based; details: dose 50.0 µg/ml, time 1105.0 min
Staphylococcus aureus [12] = assay: Photodynamic antibacterial activity against Staphylococcus aureus ATCC 700699 assessed as reduction in colony forming units at 50 to 100 ug/ml preincubated for 5 mins in PBS followed by light irradiation for 20 mins and later cultured on LB agar plate for 18 hrs by plate-count method; type: functional, organism-based; details: dose 50-100 µg/ml, time 1105.0 min
Cell membrane [13] = assay: Binding affinity to cell membrane in Staphylococcus aureus assessed as membrane potential collapse at 25 to 50 ug/ml by measuring increase in fluorescence intensity measured after light irradiation by Rhodamine123 staining based fluorescence analysis; type: subcellular; details: dose 25-50 µg/ml
[14] = Drug uptake in Escherichia coli assessed as increase in bacterial imaging at 10 ug/ml by laser scanning confocal microscopic analysis; type: ADME; details: dose 10 µg/ml
Staphylococcus aureus [15] = assay: Antibacterial activity against Staphylococcus aureus ATCC 25923 assessed as viable cells with tiny amount of PI emission at 10 ug/ml measured under dark conditions by PI co-staining based fluorescence analysis; type: functional, organism-based; details: dose 10.0 µg/ml
Staphylococcus aureus [16] = assay: Photodynamic antibacterial activity against Staphylococcus aureus ATCC 25923 assessed as reduction in colony forming units at 50 to 100 ug/ml preincubated for 5 mins in PBS followed by light irradiation for 20 mins and later cultured on LB agar plate for 18 hrs by plate-count method; type: functional, organism-based; details: dose 50-100 µg/ml, time 1105.0 min
Staphylococcus aureus [17] = assay: Photodynamic antibacterial activity against Staphylococcus aureus infected in mouse assessed as reduction in bacterial count in wounds at 50 ug/ml pretreated with compound followed by LED light irradiation for 30 mins and on day 5 the infected tissue harvested and cultured on LB agar plate and measured after 24 hrs by plate count method; type: functional, organism-based; details: dose 50.0 µg/ml, time 6.0 day
Staphylococcus aureus [18] = assay: Photodynamic antibacterial activity against Staphylococcus aureus infected in mouse assessed as reduction in pyosis in wounds at 50 ug/ml pretreated with compound followed by LED light irradiation for 30 mins and measured on day 1; type: functional, organism-based; details: dose 50.0 µg/ml, time 1.0 day
[19] = Drug uptake in Escherichia coli EHEC measured after washing by absorbance based analysis; type: ADME
Staphylococcus aureus [20] = assay: Photodynamic antibacterial activity against Staphylococcus aureus ATCC 43300 assessed as reduction in colony forming units at 50 ug/ml preincubated for 5 mins in PBS followed by light irradiation for 20 mins and later cultured on LB agar plate for 18 hrs by plate-count method; type: functional, organism-based; details: dose 50.0 µg/ml, time 1105.0 min
[21] = Drug uptake in Staphylococcus aureus ATCC 43300 measured after washing by absorbance based analysis; type: ADME
[22] = Drug uptake in Staphylococcus aureus ATCC 25923 measured after washing by absorbance based analysis; type: ADME
Cell membrane [23] = assay: Disruption of cell membrane in Staphylococcus aureus assessed as increase in membrane depolarization by measuring increase in fluorescence intensity measured after light irradiation by DiBAC4(3) based fluorescence analysis; type: subcellular; details: dose 25-100 µg/ml
Staphylococcus aureus [24] = assay: Photodynamic antibacterial activity against Staphylococcus aureus infected in mouse assessed as reduction in pyosis in wounds at 50 ug/ml pretreated with compound followed by LED light irradiation for 30 mins and measured on day 5; type: functional, organism-based; details: dose 50.0 µg/ml, time 5.0 day
Staphylococcus aureus [25] = assay: Photodynamic bactericidal activity against Staphylococcus aureus assessed as appearance of broken and shrunk bacterial cells at 50 ug/ml pretreated for 5 mins followed by light irradiation for 20 mins SEM analysis; type: functional, organism-based; details: dose 50.0 µg/ml, time 25.0 min
Escherichia coli [26] = assay: Photodynamic antibacterial activity against Escherichia coli EPEC assessed as reduction in colony forming units at 50 ug/ml preincubated for 5 mins in PBS followed by light irradiation for 20 mins and later cultured on LB agar plate for 18 hrs by plate-count method; type: functional, organism-based; details: dose 50.0 µg/ml, time 1105.0 min
DNA [27] = assay: Binding affinity to Staphylococcus aureus DNA assessed as change in absorbance spectrum by absorbance based analysis; type: nucleic-acid assay
Staphylococcus aureus [28] = assay: Photodynamic antibacterial activity against Staphylococcus aureus ATCC 29213 assessed as reduction in colony forming units at 50 ug/ml preincubated for 5 mins in PBS followed by light irradiation for 20 mins and later cultured on LB agar plate for 18 hrs by plate-count method; type: functional, organism-based; details: dose 50.0 µg/ml, time 1105.0 min
[29] = Drug uptake in Staphylococcus aureus assessed as increase in bacterial imaging at 10 ug/ml by laser scanning confocal microscopic analysis; type: ADME; details: dose 10 µg/ml
Staphylococcus aureus [30] = assay: Photodynamic antibacterial activity against Staphylococcus aureus ATCC 43300 assessed as reduction in colony forming units at 50 to 100 ug/ml preincubated for 5 mins in PBS followed by light irradiation for 20 mins and later cultured on LB agar plate for 18 hrs by plate-count method; type: functional, organism-based; details: dose 50-100 µg/ml, time 1105.0 min
Cell membrane [31] = assay: Disruption of inner cell membrane in Staphylococcus aureus assessed as increase in cell permeability by measuring increase in PI fluorescence intensity at 12.5 to 50 ug/ml measured after light irradiation by PI based fluorescence based analysis; type: subcellular; details: dose 12.5-50 µg/ml
Staphylococcus aureus [32] = assay: Photodynamic antibacterial activity against Staphylococcus aureus ATCC 25923 assessed as reduction in bacterial cell viability by measuring increase in PI-stained cells at 10 ug/ml preincubated for 5 mins in PBS followed by light irradiation for 20 mins by PI co-staining based fluorescence analysis; type: functional, organism-based; details: dose 10.0 µg/ml, time 25.0 min
DNA [33] = assay: Binding affinity to Staphylococcus aureus DNA assessed as induction of genomic DNA degradation measured after 20 mins of light irradiation by absorbance based analysis; type: nucleic-acid assay; details: dose 12.5-100 µg/ml
Staphylococcus aureus [34] = assay: Photodynamic antibacterial activity against Staphylococcus aureus ATCC 29213 assessed as reduction in colony forming units at 50 to 100 ug/ml preincubated for 5 mins in PBS followed by light irradiation for 20 mins and later cultured on LB agar plate for 18 hrs by plate-count method; type: functional, organism-based; details: dose 50-100 µg/ml, time 1105.0 min
Staphylococcus aureus [35] = assay: Photodynamic antibacterial activity against Staphylococcus aureus ATCC 700699 assessed as reduction in colony forming units at 50 ug/ml preincubated for 5 mins in PBS followed by light irradiation for 20 mins and later cultured on LB agar plate for 18 hrs by plate-count method; type: functional, organism-based; details: dose 50.0 µg/ml, time 1105.0 min
Cell membrane [36] = assay: Binding affinity to cell membrane in Staphylococcus aureus assessed as membrane potential collapse at 25 to 100 ug/ml by measuring increase in fluorescence intensity measured under dark conditions by Rhodamine123 staining based fluorescence analysis; type: subcellular; details: dose 25-100 µg/ml
Staphylococcus aureus [37] = assay: Photodynamic antibacterial activity against Staphylococcus aureus infected in mouse assessed as reduction in pyosis in wounds at 50 ug/ml pretreated with compound followed by LED light irradiation for 30 mins and measured on day 3; type: functional, organism-based; details: dose 50.0 µg/ml, time 3.0 day
Staphylococcus aureus [38] = assay: Antibacterial activity against Staphylococcus aureus infected in mouse assessed as reduction in pyosis in wounds at 50 ug/ml measured on day 1; type: functional, organism-based; details: dose 50.0 µg/ml, time 1.0 day
Staphylococcus aureus [39] = assay: Photodynamic antibacterial activity against Staphylococcus aureus infected in mouse assessed as reduction in neutrophils content in wounds at 50 ug/ml and measured on day 3 by Hematoxylin-Eosin staining based analysis; type: functional, organism-based; details: dose 50.0 µg/ml, time 3.0 day

COc1ccc2c(c1)CC[n+]1cc3cc4c(cc3cc1-2)OCO4
Activity [1]: Active
Activity [2]: Active

COc1cccc2cc3[n+](cc12)CCc1cc2c(cc1-3)OCO2.[Cl-]
Activity (Staphylococcus aureus [3]): 4 log10CFU/ml
Activity (Staphylococcus aureus [4]): Active
Activity (Staphylococcus aureus [5]): inactive

COc1ccc2c(c1)CC[n+]1cc3c4c(ccc3cc1-2)OCO4
Activity [1]: inactive
Activity [2]: inactive

CCCCN1C(=O)C(=C/C=C/C2C(=O)N(CCCC)C(=O)N(CCCC)C2=O)C(=O)N(CCCC)C1=O
remaining at 28 min [6]: 40%

COc1ccc2c(c1)CC[n+]1cc3cc(OC)ccc3cc1-2.[Cl-]
Activity [1]: Active
Activity (Staphylococcus aureus [7]): Time-dependent-effect
Activity (Staphylococcus aureus [3]): 4.5 log10CFU/ml
Activity (Staphylococcus aureus [8]): Active
Activity (Escherichia coli [9]): Active; Activity Against Escherichia Coli Is Lower Than Staphylococcus Aureus
fold change (FC) [10]: ~ 10
Activity [2]: Active
Activity (Staphylococcus aureus [5]): inactive
Activity (Escherichia coli [11]): inactive

COc1ccc2c(c1)CC[n+]1cc3c(OC)cccc3cc1-2.[Cl-]
Activity (Staphylococcus aureus [12]): Dose-dependent-effect
Activity (Cell membrane [13]): Active
Activity [1]: Active
Drug uptake [14]: Active
Activity (Staphylococcus aureus [15]): inactive
Activity (Staphylococcus aureus [16]): Dose-dependent-effect
Activity (Staphylococcus aureus [7]): Time-dependent-effect
Activity (Staphylococcus aureus [17]): Active
Activity (Staphylococcus aureus [3]): ~5 log10CFU/ml
MIC (Staphylococcus aureus [8]): 50 µg/mL
Activity (Staphylococcus aureus [18]): Active
Activity (Escherichia coli [9]): Active; Activity Against Escherichia Coli Is Lower Than Staphylococcus Aureus
Drug uptake [19]: Not_active
Activity (Staphylococcus aureus [20]): Active; Higher Activity Compared To Bbr And Mb But Lower Activity Compared To Ce6
Drug uptake [21]: Not_active
remaining at 28 min [6]: ~90%
Drug uptake [22]: Active
Activity (Cell membrane [23]): Dose-dependent-effect
Activity (Staphylococcus aureus [24]): Active; Favourable Wound Healing Status Observed
Activity (Staphylococcus aureus [25]): Active
Activity (Escherichia coli [26]): Active
Activity (DNA [27]): Active
Activity (Staphylococcus aureus [28]): Active; Higher Activity Compared To Bbr And Mb But Lower Activity Compared To Ce6
Drug uptake [29]: Active
fold change (FC) [10]: ~ 10
Activity [2]: Active
Activity (Staphylococcus aureus [30]): Dose-dependent-effect
Activity (Cell membrane [31]): Dose-dependent-effect
Activity (Staphylococcus aureus [32]): Active
Activity (Staphylococcus aureus [5]): inactive
Activity (DNA [33]): Dose-dependent-effect
Activity (Staphylococcus aureus [34]): Dose-dependent-effect
Activity (Staphylococcus aureus [35]): Active; Higher Activity Compared To Bbr And Mb But Lower Activity Compared To Ce6
Activity (Cell membrane [36]): Active
Activity (Staphylococcus aureus [37]): Active; Pyosis Nearly Disappeared
Activity (Escherichia coli [11]): inactive

COc1ccc2cc3[n+](cc2c1OC)CCc1cc2c(cc1-3)OCO2.[Cl-] [BERBERINE CHLORIDE]
Activity (Staphylococcus aureus [38]): inactive
Activity (Staphylococcus aureus [39]): inactive
Activity (Staphylococcus aureus [17]): Active
Activity (Staphylococcus aureus [3]): 2 log10CFU/ml
Activity (Staphylococcus aureus [18]): inactive
remaining at 28 min [6]: 60%

COc1ccc2c(c1)CC[n+]1cc3ccccc3cc1-2
Activity [1]: inactive
Activity [2]: inactive
